Laboratory results taken from patent US20110003393A1, “SYSTEMS AND METHODS FOR STUDYING INFLUENZA” (President and Fellows of Harvard College, priority 2007, published 2011).

Legend:
[1] = molecular target: T1, M2 proton channel of the influenza A virus (Influenza A virus, UniProt P0DOF5, C19S/C50S); type: binding, influenza A virus (A/Udorn)
[2] = molecular target: T1, M2 proton channel of the influenza A virus; type: binding, influenza A virus (A/Udorn); details: pH 7.5, 40 mM rimantadine, 0.75 mM M2(18-60) monomer, 300 mM DHPC, four NOESY spectra

SMILES: CC(N)C12CC3CC(CC(C3)C1)C2 (stereo not drawn) [rimantadine]
- affinity for the open state of the channel ([1]; pH 6): much lower affinity, if any, for the open state
- effect of binding on channel conformation ([1]; pH 7): stabilizes the closed conformation
- location of binding site from protein-rimantadine NOEs [2]: between adjacent helices at the C-terminal end of the TM domain near the Trp41 gate, on the membrane side of the channel
